# Results: US20240190855A1 (Relay Therapeutics, Inc., priority 2021, published 2024)
# Target: T1, CDK2/Cyclin E complex (Homo sapiens, UniProt P24941)
# T1 construct: purchased Eurofins 14-475
# Assay: CDK2/Cyclin E fluorescence-based microfluidic mobility shift assay (CDK2 Biochemical Caliper Assay)
# Settings: read-out: Biochemical CDK2/CyclinE Caliper IC50
# How it was run: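 Microfluidic mobility-shift readout after EDTA termination measured phosphorylation of fluorescent FL Peptide 18 (1.5 uM final) in a 20 hr room-temperature reaction. Compounds were tested at 11 concentrations (3-fold).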
row,Compound,IC50 [µM]
1,"CC(C)NC(=O)O[C@@H]1CC[C@H](c2cc(Nc3nccc4ncsc34)n[nH]2)C1 (single isomer, unassigned) [Example 121]",≤ 0.1
2,c1cnc(Nc2cc(C34CCC(CC3)C4)[nH]n2)nc1 [Example 314],1 to 100
3,"COCc1cc(C(=O)Nc2cc([C@H]3CC[C@H](Cc4ncc(C)s4)C3)[nH]n2)n(C)n1 (single isomer, unassigned) [Example 557]",1 to 100
4,Cc1cc(CC(=O)Nc2cc([C@H]3C[C@@H](COC(=O)NC(C)C)C3)[nH]n2)on1 [Example 125],≤ 0.1
5,"Cc1cc(CC(=O)Nc2cc([C@H]3CC[C@@H](Cc4nncn4C(C)C)C3)[nH]n2)on1 (single isomer, unassigned) [Example 370]",1 to 100
6,"COCc1cc(C(=O)Nc2cc([C@@H]3CC[C@H](Oc4nscc4C4CC4)C3)[nH]n2)n(C)n1 (single isomer, unassigned) [Example 413]",≤ 0.1
7,COCc1cc(C(=O)Nc2cc([C@H]3CC[C@H](c4ccc(C)[nH]c4=O)C3)[nH]n2)n(C)n1 (racemic) [Example 517],1 to 100
8,"COCc1cc(C(=O)Nc2cc([C@H]3CC[C@H](c4ccc(C)nn4)C3)[nH]n2)n(C)n1 (single isomer, unassigned) [Example 575]",1 to 100
9,"COCc1cc(C(=O)Nc2cc([C@H]3CC[C@@H](Oc4nnccc4C(C)C)C3)[nH]n2)n(C)n1 (single isomer, unassigned) [Example 410]",≤ 0.1
10,"Cc1cc(CC(=O)Nc2cc([C@H]3CCC[C@H](OC(=O)NC4(C)CC4)CC3)[nH]n2)on1 (single isomer, unassigned) [Example 26]",1 to 100
11,"CC(C)NC(=O)O[C@H]1CC[C@@H](c2cc(Nc3nccc4ncsc34)n[nH]2)C1 (single isomer, unassigned) [Example 122]",≤ 0.1
12,"CC(C)NC(=O)O[C@@H]1CC[C@H](c2cc(Nc3nccn4nccc34)n[nH]2)C1 (single isomer, unassigned) [Example 138]",≤ 0.1
13,"Cc1cc(CC(=O)Nc2cc([C@H]3CC[C@@H](NC(=O)[C@H](O)C(C)C)C3)[nH]n2)on1 (single isomer, unassigned) [Example 452]",1 to 100
14,Cc1cc(CC(=O)Nc2cc([C@H]3CC[C@@H](NC(N)=O)C3)[nH]n2)on1 (racemic) [Example 10],0.25 to 1
15,"Cc1cc(CC(=O)Nc2cc([C@H]3CC[C@H](N(C)C(=O)NC(C)C)C3)[nH]n2)on1 (single isomer, unassigned) [Example 141]",1 to 100
16,"Cc1cc(CC(=O)Nc2cc([C@@H]3CC[C@H](n4cc(C)[nH]c4=O)C3)[nH]n2)on1 (single isomer, unassigned) [Example 349]",0.25 to 1
17,Cc1ncccc1O[C@H]1CO[C@@H](c2cc(Nc3nccn4nccc34)n[nH]2)C1 [Example 522],0.25 to 1
18,"COCc1cc(C(=O)Nc2cc([C@H]3CC[C@@H](c4ccc(C(C)C)cn4)C3)[nH]n2)n(C)n1 (single isomer, unassigned) [Example 552]",1 to 100
19,"Cc1cc(CC(=O)Nc2cc([C@@H]3CC[C@H](Oc4cnccc4C)C3)[nH]n2)on1 (single isomer, unassigned) [Example 379]",0.25 to 1
20,"COCc1cc(C(=O)Nc2cc([C@@H]3CC[C@H](Cc4ncc(C)s4)C3)[nH]n2)n(C)n1 (single isomer, unassigned) [Example 555]",0.25 to 1
21,COCc1cc(C(=O)Nc2cc([C@H]3C[C@]4(C3)NC(=O)N(CC(C)C)C4=O)n[nH]2)n(C)n1 [Example 541],1 to 100

row,Compound,IC50 [µM]
1,Cc1cc(CC(=O)Nc2cc([C@H]3C[C@H](COc4nscc4C4CC4)C3)[nH]n2)on1 [Example 369],1 to 100
2,CC(C)c1ccnnc1OC[C@H]1C[C@H](c2cc(Nc3nccn4nccc34)n[nH]2)C1 [Example 489],0.25 to 1
3,"CC(C)NC(=O)O[C@H]1CC[C@@H](c2cc(N)n[nH]2)C1 (single isomer, unassigned) [Example 418]",1 to 100
4,"Cc1cc(CC(=O)Nc2cc([C@H]3CC[C@@H](Oc4ccccc4)C3)[nH]n2)on1 (single isomer, unassigned) [Example 351]",0.1 to 0.25
5,"COCc1cc2c(Nc3cc([C@H]4CC[C@@H](Oc5cccnc5)C4)[nH]n3)nccn2n1 (single isomer, unassigned) [Example 525]",1 to 100
6,COCc1cc(C(=O)Nc2cc([C@H]3C[C@@H](COc4nncn4C(C)C)C3)[nH]n2)n(C)n1 [Example 633],≤ 0.1
7,"c1cc2ncsc2c(Nc2cc([C@H]3CC[C@@H](Oc4nscc4C4CC4)C3)[nH]n2)n1 (single isomer, unassigned) [Example 404]",≤ 0.1
8,"COCc1nc2ccnc(Nc3cc([C@@H]4C[C@H](OC(=O)NC(C)C)CO4)[nH]n3)c2s1 (single isomer, unassigned) [Example 466]",≤ 0.1
9,Cc1cc(CC(=O)Nc2cc(N3CC[C@@H](COC(=O)NC4(C)CC4)C3)[nH]n2)on1 (racemic) [Example 53],1 to 100
10,COCc1cc(C(=O)Nc2cc([C@H]3CC[C@@H](Oc4cn[nH]c4C(C)C)C3)[nH]n2)n(C)n1 [Example 629],0.1 to 0.25
11,"CC(C)NC(=O)O[C@H]1CC[C@@H](c2cc(Nc3ccc4c(n3)C(C)(C)NC4=O)n[nH]2)C1 (single isomer, unassigned) [Example 528]",≤ 0.1
12,"Cc1cc(CC(=O)Nc2cc([C@H]3C[C@H](OC(=O)NC4(C)CC4)CO3)[nH]n2)on1 (single isomer, unassigned) [Example 108]",1 to 100
13,COCc1cc2c(Nc3cc([C@H]4C[C@@H](COc5cccnc5)C4)[nH]n3)nccn2n1 [Example 586],0.25 to 1
14,"c1cncc(O[C@@H]2CC[C@H](c3cc(Nc4nccn5nccc45)n[nH]3)C2)c1 (single isomer, unassigned) [Example 504]",1 to 100
15,CC(C)c1ccnnc1O[C@H]1CC[C@@H](c2cc(Nc3nccc4ncsc34)n[nH]2)CC1 [Example 412],≤ 0.1
16,COCc1cc(C(=O)Nc2cc([C@H]3C[C@@H](COc4nscc4C4CC4)C3)[nH]n2)n(C)n1 [Example 454],≤ 0.1
17,c1cncc(OC[C@H]2C[C@H](c3cc(Nc4nccn5nccc45)n[nH]3)C2)c1 [Example 537],1 to 100
18,"COCc1cc(C(=O)Nc2cc([C@H]3CC[C@@H](Oc4nscc4C4CC4)C3)[nH]n2)n(C)n1 (single isomer, unassigned) [Example 414]",≤ 0.1
19,CC(C)c1ccnnc1OC[C@H]1C[C@H](c2cc(Nc3nccc4ncsc34)n[nH]2)C1 [Example 439],1 to 100
20,"Cc1ccc(O[C@H]2CC[C@@H](c3cc(NC(=O)Cc4cc(C)no4)n[nH]3)C2)cn1 (single isomer, unassigned) [Example 356]",0.25 to 1

# More lines, now with the values ahead:
row,IC50 [µM],Compound
1,≤ 0.1,C#CC1(NC(=O)O[C@H]2CO[C@@H](c3cc(Nc4nccn5nc(COC)cc45)n[nH]3)C2)CC1 [Example 728]
2,≤ 0.1,CC1(NC(=O)O[C@H]2CO[C@@H](c3cc(Nc4ncnc5ncccc45)n[nH]3)C2)CC1 [Example 761]
3,1 to 100,COCc1cc2c(Nc3cc([C@H]4C[C@@H](OC(=O)NCCC5CCOCC5)CO4)[nH]n3)nccn2n1 [Example 694]
4,≤ 0.1,C[C@H](NC(=O)O[C@H]1CO[C@@H](c2cc(NC(=O)c3cc(COC(F)(F)F)nn3C)n[nH]2)C1)C1CC1 [Example 746]
5,≤ 0.1,"Cn1nc(COC(F)(F)F)cc1C(=O)Nc1ncc([C@@H]2C[C@H](OC(=O)NC3(C)CC3)CO2)s1 (single isomer, unassigned) [Example 899]"
6,≤ 0.1,Cc1cc(CC(=O)Nc2cc([C@H]3CC[C@@H](OC(=O)N4C[C@@H]5[C@@H](CF)[C@@H]5C4)C3)[nH]n2)on1 [Example 662]
7,≤ 0.1,Cn1nc(COC(F)(F)F)cc1C(=O)Nc1cc([C@H]2C[C@@H](OC(=O)NC34CC(C#N)(C3)C4)CO2)[nH]n1 [Example 914]
8,0.1 to 0.25,COCc1cc2c(Nc3cc([C@H]4C[C@@H](Oc5nncn5C5(C(F)(F)F)CC5)CO4)[nH]n3)nccn2n1 [Example 741]
9,0.25 to 1,COCc1cc(C(=O)Nc2cc([C@H]3C[C@@H](COc4cn[nH]c4C4(C)CC4)C3)[nH]n2)n(C)n1 [Example 645]
10,≤ 0.1,COCc1cc(C(=O)Nc2cc([C@H]3C[C@@H](COc4[nH]ncc4C(C)C)C3)[nH]n2)n(C)n1 [Example 689]
11,≤ 0.1,CCOCc1cc2c(Nc3cc([C@H]4C[C@@H](OC(=O)NC(C)C)CO4)[nH]n3)nccn2n1 [Example 653]
12,1 to 100,COCCOc1ccnc(Nc2cc(C3CCCC3)[nH]n2)n1 [Example 811]
13,≤ 0.1,COCc1cn2c(Nc3cc([C@@H]4C[C@H](OC(=O)NC5(C)CC5)CO4)[nH]n3)nccc2n1 [Example 921]
14,≤ 0.1,CC(C)NC(=O)OC[C@H]1C[C@@H](c2cc(NC(=O)c3cc(COC(F)F)nn3C)n[nH]2)C1 [Example 650]
15,1 to 100,CCCc1cnnc(Nc2cc(C3CCCC3)[nH]n2)c1 [Example 807]
16,0.1 to 0.25,Cn1cc2c(Nc3cc([C@H]4C[C@@H](OC(=O)NC5(C)CC5)CO4)[nH]n3)nccc2n1 [Example 745]
17,0.25 to 1,COCc1cc2c(Nc3cc([C@H]4C[C@@H](OC(=O)NC5COC5)CO4)[nH]n3)nccn2n1 [Example 683]
18,≤ 0.1,CC1(NC(=O)O[C@H]2CO[C@@H](c3cc(Nc4nccn5nc(COC(F)F)cc45)n[nH]3)C2)CC1 [Example 714]
19,≤ 0.1,COCc1cc2c(Nc3cc([C@H]4C[C@@H](OC(=O)N[C@@H]5C[C@@H]5C)CO4)[nH]n3)nccn2n1 [Example 759]
20,1 to 100,Cc1cc(C)nc(Nc2cc(C3CCCC3)[nH]n2)n1 [Example 806]
21,1 to 100,N#CCc1c[nH]c2nccc(Nc3cc(C4CCCC4)[nH]n3)c12 [Example 798]
22,1 to 100,COCc1cn2c(Nc3cc([C@@H]4C[C@@H](OC(=O)NC5(C)CC5)CO4)[nH]n3)nccc2n1 [Example 904]
23,≤ 0.1,COCc1cc2c(Nc3cc([C@H]4C[C@@H](OC(=O)N[C@@H]5C[C@H]5C)CO4)[nH]n3)nccn2n1 [Example 697]
